Experimental data: patent publication US7132252B2, “Methods for detecting the interaction of compounds with cytochrome P450 using optical molecular sensors” (Invitrogen Corporation, priority 1998, dated 2006)
Several values for one entry are separate records, joined by “and”; a condition that tells them apart may be missing. Equal values may be shown once. Read-outs that look alike come from different tables or passages of the source. Blank lines part the entries; values can stand above or below the molecule they belong to.

Key:
[1] = molecular target: CYP2C9 (Homo sapiens, UniProt P11712); assay: Kinetic properties of fluorogenic substrates with CYP 2C9; assay type: biochemical; settings: for v (1.25 uM): turnover rate at 1.25 uM substrate; for v (10 uM): turnover rate at 10 uM substrate
Sequence of CYP2C9 (P11712 whole entry): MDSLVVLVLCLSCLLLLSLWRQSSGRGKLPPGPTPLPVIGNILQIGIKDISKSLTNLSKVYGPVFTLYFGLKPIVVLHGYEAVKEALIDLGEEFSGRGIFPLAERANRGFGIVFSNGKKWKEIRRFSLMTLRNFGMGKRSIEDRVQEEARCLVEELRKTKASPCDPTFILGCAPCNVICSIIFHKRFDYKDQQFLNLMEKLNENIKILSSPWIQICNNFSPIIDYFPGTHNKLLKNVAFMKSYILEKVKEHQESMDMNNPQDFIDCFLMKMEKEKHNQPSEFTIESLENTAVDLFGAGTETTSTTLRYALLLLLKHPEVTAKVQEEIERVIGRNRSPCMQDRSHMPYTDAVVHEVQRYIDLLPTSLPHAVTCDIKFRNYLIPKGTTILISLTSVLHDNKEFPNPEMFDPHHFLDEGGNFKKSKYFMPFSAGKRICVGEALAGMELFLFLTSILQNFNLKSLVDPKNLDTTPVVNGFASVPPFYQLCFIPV

[2] = molecular target: T1, CYP 2B6 (Homo sapiens, UniProt P20813); assay: Kinetic properties of fluorogenic substrates with CYP 2B6; assay type: biochemical; settings: for v (1.25 uM): turnover rate at 1.25 uM substrate; for v (1.25 uM) / v (10 uM) / Km / kcat: — = too low to quantify; for v (10 uM): turnover rate at 10 uM substrate
T1 sequence (P20813 1-491): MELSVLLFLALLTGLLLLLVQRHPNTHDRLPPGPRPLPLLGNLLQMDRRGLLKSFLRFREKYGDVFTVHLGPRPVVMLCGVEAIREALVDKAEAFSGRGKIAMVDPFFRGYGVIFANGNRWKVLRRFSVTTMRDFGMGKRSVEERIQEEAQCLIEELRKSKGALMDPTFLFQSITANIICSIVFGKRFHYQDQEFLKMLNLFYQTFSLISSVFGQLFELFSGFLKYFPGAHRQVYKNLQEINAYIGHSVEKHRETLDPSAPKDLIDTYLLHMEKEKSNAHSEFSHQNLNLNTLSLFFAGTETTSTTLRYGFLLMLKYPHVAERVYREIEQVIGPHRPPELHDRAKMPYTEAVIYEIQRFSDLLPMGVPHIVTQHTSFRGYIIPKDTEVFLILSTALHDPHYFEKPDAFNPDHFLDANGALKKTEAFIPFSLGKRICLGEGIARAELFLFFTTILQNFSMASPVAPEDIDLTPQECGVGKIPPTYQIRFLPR

[3] = molecular target: CYP2D6 (Homo sapiens, UniProt P10635); assay: Kinetic properties of fluorogenic substrates with CYP 2D6; assay type: biochemical; settings: for v (1.25 uM): turnover rate at 1.25 uM substrate; for v (10 uM): turnover rate at 10 uM substrate
Sequence of CYP2D6 (P10635 whole entry): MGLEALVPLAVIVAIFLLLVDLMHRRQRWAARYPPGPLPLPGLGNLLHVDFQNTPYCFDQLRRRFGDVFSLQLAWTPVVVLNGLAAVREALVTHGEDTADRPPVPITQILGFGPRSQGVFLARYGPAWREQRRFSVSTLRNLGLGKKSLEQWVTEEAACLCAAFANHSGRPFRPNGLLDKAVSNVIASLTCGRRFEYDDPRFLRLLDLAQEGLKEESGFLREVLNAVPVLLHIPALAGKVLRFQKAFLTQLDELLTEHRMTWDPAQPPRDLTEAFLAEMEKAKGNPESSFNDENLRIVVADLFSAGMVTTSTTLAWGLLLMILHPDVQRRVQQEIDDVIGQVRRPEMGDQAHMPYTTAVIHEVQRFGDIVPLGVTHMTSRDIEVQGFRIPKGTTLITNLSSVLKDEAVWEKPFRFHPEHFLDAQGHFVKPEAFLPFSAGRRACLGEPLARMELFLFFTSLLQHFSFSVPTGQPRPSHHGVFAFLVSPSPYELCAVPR
Excerpt: (§1) (respectively, MFC and MR).

[4] = molecular target: CYP2C19 (Homo sapiens, UniProt P33261); assay: Kinetic properties of fluorogenic substrates with CYP 2C19; assay type: biochemical; settings: for v (1.25 uM): turnover rate at 1.25 uM substrate; for v (1.25 uM) / v (10 uM): — = too low to quantify; for v (10 uM): turnover rate at 10 uM substrate
Sequence of CYP2C19 (P33261 whole entry): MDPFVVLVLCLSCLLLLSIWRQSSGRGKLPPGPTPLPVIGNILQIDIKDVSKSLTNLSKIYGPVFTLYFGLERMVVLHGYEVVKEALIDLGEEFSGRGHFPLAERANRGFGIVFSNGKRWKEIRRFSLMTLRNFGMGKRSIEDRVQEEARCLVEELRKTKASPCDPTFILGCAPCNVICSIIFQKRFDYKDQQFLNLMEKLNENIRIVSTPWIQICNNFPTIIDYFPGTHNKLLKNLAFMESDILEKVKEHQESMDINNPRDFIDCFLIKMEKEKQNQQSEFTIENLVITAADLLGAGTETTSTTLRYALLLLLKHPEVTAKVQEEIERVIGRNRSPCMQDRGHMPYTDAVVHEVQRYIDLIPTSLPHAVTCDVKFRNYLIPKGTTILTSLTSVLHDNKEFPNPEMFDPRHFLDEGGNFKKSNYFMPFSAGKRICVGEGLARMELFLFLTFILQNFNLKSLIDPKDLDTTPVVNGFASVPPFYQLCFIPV

[5] = molecular target: T2, CYP 1A2 (Homo sapiens, UniProt P05177); assay: Kinetic properties of fluorogenic substrates with CYP 1A2; assay type: biochemical
T2 sequence (P05177 1-516): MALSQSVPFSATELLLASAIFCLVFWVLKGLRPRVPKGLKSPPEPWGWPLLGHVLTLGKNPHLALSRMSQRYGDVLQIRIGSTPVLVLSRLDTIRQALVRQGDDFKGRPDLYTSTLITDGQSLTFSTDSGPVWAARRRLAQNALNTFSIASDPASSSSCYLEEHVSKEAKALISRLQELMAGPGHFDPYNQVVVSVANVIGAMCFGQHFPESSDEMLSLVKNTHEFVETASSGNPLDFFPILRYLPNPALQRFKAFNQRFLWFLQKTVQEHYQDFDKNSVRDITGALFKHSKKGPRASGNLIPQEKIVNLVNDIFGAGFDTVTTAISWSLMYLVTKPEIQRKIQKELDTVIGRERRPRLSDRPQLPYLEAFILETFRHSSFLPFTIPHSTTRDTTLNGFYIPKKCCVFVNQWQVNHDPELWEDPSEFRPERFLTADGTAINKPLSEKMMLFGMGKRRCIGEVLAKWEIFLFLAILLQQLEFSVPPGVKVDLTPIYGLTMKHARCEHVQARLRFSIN

[6] = molecular target: T3, CYP3A4 (Homo sapiens, UniProt P08684)
T3 sequence (P08684 whole entry): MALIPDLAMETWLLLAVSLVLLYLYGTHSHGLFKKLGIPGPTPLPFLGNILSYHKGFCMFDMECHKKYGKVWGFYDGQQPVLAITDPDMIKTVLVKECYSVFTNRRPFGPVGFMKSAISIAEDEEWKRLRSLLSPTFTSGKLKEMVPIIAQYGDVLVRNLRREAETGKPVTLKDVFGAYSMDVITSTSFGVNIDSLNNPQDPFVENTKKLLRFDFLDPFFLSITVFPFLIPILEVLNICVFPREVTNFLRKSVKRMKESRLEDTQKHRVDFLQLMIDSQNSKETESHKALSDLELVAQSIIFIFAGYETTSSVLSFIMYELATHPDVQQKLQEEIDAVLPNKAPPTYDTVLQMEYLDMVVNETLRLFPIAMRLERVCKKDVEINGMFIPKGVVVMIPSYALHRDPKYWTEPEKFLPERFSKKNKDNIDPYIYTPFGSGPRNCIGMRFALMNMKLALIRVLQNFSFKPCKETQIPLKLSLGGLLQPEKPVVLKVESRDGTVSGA

[7] = molecular target: T3, CYP3A4; assay: Kinetic properties of fluorescein-based fluorogenic substrates with CYP 3A4; assay type: biochemical; settings: for K1/2max: concentration at 1/2 maximal velocity for sigmoidal kinetics; for vmax: for sigmoidal kinetics; for v (1.25 uM): turnover rate at 1.25 uM substrate; for v (1.25 uM) / v (10 uM): 100 mM K+ phosphate, pH 8.0; for v (10 uM): turnover rate at 10 uM substrate
Protocol: (§2) Dibenzylfluorescein (DBF) was purchased form Gentest, Woburn, Mass. […] DBF, BOMF and DBOMF were diluted from a stock solution of 2 mM in acetonitrile to a 4×concentration of 80 μM in 100 mM K+ phosphate buffer. Seven 1:2 dilutions were made of each substrate of which 25 μl was added to the appropriate wells. […] The cytochrome P450 isozyme CYP3A4 was diluted to give a 0.5 pmol enzyme per well and added in a volume of 10 μl/well in K+ phosphate, pH 8.0. Enzymatic conversion of the substrate to products was allowed to proceed for 1 hour with fluorescence reads taken every four minutes on a fluorescence microtiter plate reader. The solution was illuminated using an 485/20 nm excitation filter and fluorescence emission was detected through a 530/25 nm the emission filter.

[8] = molecular target: T4, CYP 2C8 (Homo sapiens, UniProt P10632); assay: Kinetic properties of fluorescein-based fluorogenic substrates with CYP 2C8; assay type: biochemical; settings: for v (1.25 uM): turnover rate at 1.25 uM substrate; for v (1.25 uM) / v (10 uM): 100 mM K+ phosphate buffer, pH 7.5; for v (10 uM): turnover rate at 10 uM substrate
T4 sequence (P10632 1-490): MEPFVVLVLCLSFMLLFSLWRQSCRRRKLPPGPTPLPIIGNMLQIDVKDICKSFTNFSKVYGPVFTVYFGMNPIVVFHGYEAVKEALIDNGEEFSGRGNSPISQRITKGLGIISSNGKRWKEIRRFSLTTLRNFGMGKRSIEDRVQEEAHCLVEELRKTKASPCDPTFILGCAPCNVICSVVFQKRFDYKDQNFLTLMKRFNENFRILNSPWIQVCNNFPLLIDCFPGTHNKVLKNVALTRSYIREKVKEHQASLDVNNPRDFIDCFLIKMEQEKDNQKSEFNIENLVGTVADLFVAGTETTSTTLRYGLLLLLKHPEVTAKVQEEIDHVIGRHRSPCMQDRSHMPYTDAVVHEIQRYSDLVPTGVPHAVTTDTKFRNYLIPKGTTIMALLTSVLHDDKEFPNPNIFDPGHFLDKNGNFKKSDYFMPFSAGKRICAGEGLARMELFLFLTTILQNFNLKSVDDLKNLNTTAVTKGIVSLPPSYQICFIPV
Protocol: as §2
In deviation from the protocol described in Example 32, the phosphate-based buffer (100 mM K+ phosphate, pH 8.0) was replaced throughout the procedure by 100 mM K+ phosphate buffer, pH 7.5. […] Specifically, the substrate dibenzylfluorescein (DBF) (purchased form Gentest, Woburn, Mass.) and the sensor of the present invention DBOMF were tested for activity with CYP 2C8.

[9] = molecular target: T3, CYP3A4; assay: in vitro; settings: pH 8, % inhibition, 10 μM drug; for inhibition at 20 min, 10 µM: Condition A, 20 min pre-incubation without NADP+ (no enzyme turnover), relative to 10 μM clotrimazole control; for inhibition at 40 min, 10 µM: Condition B, 40 min pre-incubation with NADP+ (enzyme turnover), relative to 10 μM ellipticine control
[10] = molecular target: T3, CYP3A4; assay: Kinetic properties of fluorogenic substrates with CYP 3A4; assay type: biochemical; settings: — = too low to quantify
Excerpt: For further understanding these terms in the context of this invention, attention is directed to FIG. 4 and the analysis of FIG. 4.
as §1

[11] = substrate: CCOCOc1ccc2cc(C#N)c(=O)oc2c1; assay: Kinetic properties of fluorogenic substrates with CYP 1A2; assay type: biochemical, human
[12] = substrate: CCOc1ccc2cc(C#N)c(=O)oc2c1; assay: as above; assay type: biochemical, human
[13] = turnover rate at 1.25 uM substrate
[14] = turnover rate at 10 uM substrate

Molecule: CCOc1ccc2cc(C#N)c(=O)oc2c1 [3CEC, 3-Cyano-7-ethoxycoumarin, reference compound]
type of kinetics [4]: Michaelis-Menten | v (1.25 uM) [4]: 0.05 min⁻¹ | v (10 uM) [4]: 0.34 min⁻¹ | type of kinetics [5]: Michaelis-Menten | v (1.25 uM) [5, 13]: 1.73 min⁻¹ | v (10 uM) [5, 14]: 12.55 min⁻¹

Molecule: CCCCc1oc2ccccc2c1C(=O)c1cc(I)c(OCCN(CC)CC)c(I)c1 [Amiodarone]
metabolism-dependent inhibitory activity against the CYP3A4 isozyme [6]: at least partial metabolism-dependent inhibitory activity

Molecule: Cc1c2ccncc2c(C)c2c1[nH]c1ccccc12 [Ellipticine]
metabolism-dependent inhibitory activity against the CYP3A4 isozyme ([6]; indicated by data for DBOMF): at least partial metabolism-dependent inhibitory activity | inhibition at 20 min, 10 µM ([9]; substrate BOMCC): 92% | inhibition at 40 min, 10 µM ([9]; substrate BOMCC): 100% | inhibition at 20 min, 10 µM ([9]; substrate BOMR): 97% | inhibition at 40 min, 10 µM ([9]; substrate BOMR): 100% | inhibition at 20 min, 10 µM ([9]; substrate DBOMF): 40% | inhibition at 40 min, 10 µM ([9]; substrate DBOMF): 100%

Molecule: COc1ccc(COc2ccc3nc4ccc(=O)cc-4oc3c2)cc1 [MOBR, Paramethoxybenzylresorufin]
type of kinetics [1]: Michaelis-Menten | v (1.25 uM) ([1]; — = too low to quantify): 0.02 min⁻¹ | v (10 uM) ([1]; — = too low to quantify): 0.02 min⁻¹ | type of kinetics [2]: Michaelis-Menten | Km ([2]; human, CYP 2B6 isozyme): 0.01 µM | v (1.25 uM) [2]: 0.08 min⁻¹ | v (10 uM) [2]: 0.10 min⁻¹ | kcat [2]: 0.0067 s⁻¹ | type of kinetics [3]: Michaelis-Menten | v (1.25 uM) ([3]; — = too low to quantify): 0.0185 min⁻¹ and 0.02 min⁻¹ | v (10 uM) ([3]; — = too low to quantify): 0.0409 min⁻¹ and 0.04 min⁻¹ | type of kinetics [4]: not MMK | v (1.25 uM) [4]: 1.26 min⁻¹ | v (10 uM) [4]: 0.69 min⁻¹

Molecule: COc1ccc(Cc2nccc3cc(OC)c(OC)cc23)cc1OC [Papaverine]
metabolism-dependent inhibitory activity against the CYP3A4 isozyme ([6]; indicated by data for DBOMF): at least partial metabolism-dependent inhibitory activity | inhibition at 20 min, 10 µM ([9]; substrate BOMCC): 34% | inhibition at 40 min, 10 µM ([9]; substrate BOMCC): 99% | inhibition at 20 min, 10 µM ([9]; substrate BOMR): 69% | inhibition at 40 min, 10 µM ([9]; substrate BOMR): 92% | inhibition at 20 min, 10 µM ([9]; substrate DBOMF): 48% | inhibition at 40 min, 10 µM ([9]; substrate DBOMF): 90%

B1: CYP 1A2 (Homo sapiens) (protein)
chain: MALSQSVPFSATELLLASAIFCLVFWVLKGLRPRVPKGLKSPPEPWGWPLLGHVLTLGKNPHLALSRMSQRYGDVLQIRIGSTPVLVLSRLDTIRQALVRQGDDFKGRPDLYTSTLITDGQSLTFSTDSGPVWAARRRLAQNALNTFSIASDPASSSSCYLEEHVSKEAKALISRLQELMAGPGHFDPYNQVVVSVANVIGAMCFGQHFPESSDEMLSLVKNTHEFVETASSGNPLDFFPILRYLPNPALQRFKAFNQRFLWFLQKTVQEHYQDFDKNSVRDITGALFKHSKKGPRASGNLIPQEKIVNLVNDIFGAGFDTVTTAISWSLMYLVTKPEIQRKIQKELDTVIGRERRPRLSDRPQLPYLEAFILETFRHSSFLPFTIPHSTTRDTTLNGFYIPKKCCVFVNQWQVNHDPELWEDPSEFRPERFLTADGTAINKPLSEKMMLFGMGKRRCIGEVLAKWEIFLFLAILLQQLEFSVPPGVKVDLTPIYGLTMKHARCEHVQARLRFSIN
Km [11]: 11.0 µM | kcat [11]: 0.35 s⁻¹ | kcat/Km [11]: 31800 M⁻¹ s⁻¹ | Km [12]: 26.0 µM | kcat [12]: 0.733 s⁻¹ | kcat/Km [12]: 28200 M⁻¹ s⁻¹

The remaining lines, values ahead:

type of kinetics [1]: Michaelis-Menten | v (1.25 uM) ([1]; — = too low to quantify): 0.01 min⁻¹ | v (10 uM) ([1]; — = too low to quantify): 0.03 min⁻¹ | Km ([1]; — = too low to quantify): 103 µM | kcat ([1]; — = too low to quantify): 0.0067 s⁻¹ | type of kinetics [2]: Michaelis-Menten | v (1.25 uM) [2]: 1.63 min⁻¹ | v (10 uM) [2]: 2.53 min⁻¹ | Km [2]: 1.4 µM | kcat [2]: 0.0483 s⁻¹ | type of kinetics [3]: Michaelis-Menten | v (1.25 uM) ([3]; — = too low to quantify): 0.03 min⁻¹ | v (10 uM) ([3]; — = too low to quantify): 0.10 min⁻¹ | Km ([3]; — = too low to quantify): 10 µM | kcat ([3]; — = too low to quantify): 0.005 s⁻¹
Molecule: 7-Methoxy-4-trifluoromethylcoumarin [MFC, reference compound]

type of kinetics [7]: sigmoidal | K1/2max [7]: 0.80 µM | vmax [7]: 4.30 min⁻¹ | v (1.25 uM) [7]: 3.27 min⁻¹ | v (10 uM) [7]: 4.40 min⁻¹ | type of kinetics [8]: MichaelisMenten | v (1.25 uM) [8]: 0.16 min⁻¹ | v (10 uM) [8]: 0.37 min⁻¹
Molecule: O=C(OCc1ccccc1)c1ccccc1-c1c2ccc(=O)cc-2oc2cc(OCc3ccccc3)ccc12 [DBF, Dibenzylfluorescein, reference compound]

type of kinetics [7]: sigmoidal | K1/2max [7]: 1.50 µM | vmax [7]: 16.00 min⁻¹ | v (1.25 uM) [7]: 6.00 min⁻¹ | v (10 uM) [7]: 15.50 min⁻¹ | type of kinetics [8]: MichaelisMenten | v (1.25 uM) [8]: 0.55 min⁻¹ | v (10 uM) [8]: 1.54 min⁻¹
Molecule: O=C(OCOCc1ccccc1)c1ccccc1-c1c2ccc(=O)cc-2oc2cc(OCOCc3ccccc3)ccc12 [DBOMF, Dibenzyloxymethylfluorescein]

v (1.25 uM) [10, 13]: 0.0083 min⁻¹ | v (10 uM) [10, 14]: 0.0338 min⁻¹ | v (1.25 uM) ([3]; — = too low to quantify): 0.03396 min⁻¹ | v (10 uM) ([3]; — = too low to quantify): 0.2146 min⁻¹ | v (1.25 uM) [4]: 0.06 min⁻¹ | v (10 uM) [4]: 0.062 min⁻¹
Molecule: COCOc1ccc2nc3ccc(=O)cc-3oc2c1 [MOMR]
